What is called IC50 is the midpoint of a concentration-inhibition curve.

Each structure is given as a SMILES string.

Series [1] has as its system NCI-H187. The series can be described thus: Cytotoxicity against human NCI-H187 cells by resazurin staining based analysis. Format: functional, cell-based. (In general: The colour change of resazurin is a common sign of viable cells or microbes.)
Series [2] has as its system MCF7. As to the kind of experiment: Cytotoxicity against human MCF7 cells by resazurin staining based analysis. It is filed as functional, cell-based.
Series [3] in a line: Cytotoxicity against African green monkey Vero cells by green fluorescent protein-based assay. It is filed as toxicity, cell-based. As to conditions: African green monkey (Chlorocebus sabaeus).
Series [4] is described as follows: Antioxidant activity assessed as DPPH radical scavenging activity incubated for 30 min by DPPH assay. It is filed as functional. (In general: The DPPH test is a chemical assay of radical scavenging.)

Take `CC1(C)Oc2ccc(O)cc2C(O)C1O` (stereo not given): the concentration for half-maximal inhibition (IC50) in series [1] was 9.1 µM; in series [2] it was more than 240 µM; in series [3] it was more than 240 µM; in series [4], more than 1900 µM.

Take `COc1ccc2c(c1)C(O)C(O)C(C)(C)O2` (stereo not given): the IC50 in series [1] was more than 230 µM; in series [2], more than 220 µM; in series [3], 220 µM; in series [4], more than 1800 µM.

`CC1(C)C=Cc2cc3c(cc2O1)O[C@@H]1c2cc(O)c(O)cc2OC(C)(C)[C@@H]1O3` (racemic): the IC50 amounted to 45 µM in series [1], 66 µM in series [2], 46 µM in series [3] and 370 µM in series [4].

As to `COc1cc2c(cc1O)OC(C)(C)C(O)C2` (racemic), the IC50 is 55 µM in series [1], more than 220 µM in series [2], more than 220 µM in series [3] and 180 µM in series [4].

`COc1cc2c(cc1O)OC(C)(C)[C@H]1[C@H]3[C@@H](O[C@@H]21)c1cc(OC)c(O)cc1OC3(C)C` (racemic): the IC50 in series [1] was more than 120 µM; in series [2], more than 120 µM; in series [3], more than 120 µM; in series [4] it was 540 µM.

Take `CC1(C)Oc2cc(O)c(O)cc2[C@@H]2O[C@H]3c4cc(O)c(O)cc4OC(C)(C)[C@H]3[C@@H]21` (racemic): the IC50 was 48 µM in series [1], more than 130 µM in series [2], more than 130 µM in series [3] and 66 µM in series [4].

On to `O=C1O[C@H]([C@@H](O)CO)C(O)=C1O` [ASCORBIC ACID], for which the IC50 in series [4] turned out to be 68 µM.

`COc1cccc2c1C(=O)c1c(O)c3c(c(O)c1C2=O)C[C@@](O)(C(=O)CO)C[C@@H]3O[C@H]1C[C@H](N)[C@H](O)[C@H](C)O1` [DOXORUBICIN]: the IC50 worked out at 0.084 µM in series [1] and 12 µM in series [2].

With `Cc1c2ccncc2c(C)c2c1[nH]c1ccccc12` [ELLIPTECINE], the IC50 in series [1] is 7.8 µM; in series [3] it was more than 5.4 µM.

In series [2], `CC/C(=C(\c1ccccc1)c1ccc(OCCN(C)C)cc1)c1ccccc1` [TAMOXIFEN] yielded an IC50 of 23 µM.

The values above are taken from ChEMBL document CHEMBL6103617, “Chromene Dimers from Cultures of Basidiomycete Panus similis” (J Nat Prod, 2025).
